Like-named read-outs stand apart in the source and are kept apart here.
Experiments:
[1] = biological target: T1, α1A Human Adrenergic Receptor (Homo sapiens, UniProt P25100); experiment: Radioligand binding, [3H]prazosin, cloned human α1A adrenergic receptor; conditions: pKi alpha-1 1a
T1 construct: The entire coding region of α1A (1719 bp); expressed in transfected cells
T1 sequence (P25100 1-572): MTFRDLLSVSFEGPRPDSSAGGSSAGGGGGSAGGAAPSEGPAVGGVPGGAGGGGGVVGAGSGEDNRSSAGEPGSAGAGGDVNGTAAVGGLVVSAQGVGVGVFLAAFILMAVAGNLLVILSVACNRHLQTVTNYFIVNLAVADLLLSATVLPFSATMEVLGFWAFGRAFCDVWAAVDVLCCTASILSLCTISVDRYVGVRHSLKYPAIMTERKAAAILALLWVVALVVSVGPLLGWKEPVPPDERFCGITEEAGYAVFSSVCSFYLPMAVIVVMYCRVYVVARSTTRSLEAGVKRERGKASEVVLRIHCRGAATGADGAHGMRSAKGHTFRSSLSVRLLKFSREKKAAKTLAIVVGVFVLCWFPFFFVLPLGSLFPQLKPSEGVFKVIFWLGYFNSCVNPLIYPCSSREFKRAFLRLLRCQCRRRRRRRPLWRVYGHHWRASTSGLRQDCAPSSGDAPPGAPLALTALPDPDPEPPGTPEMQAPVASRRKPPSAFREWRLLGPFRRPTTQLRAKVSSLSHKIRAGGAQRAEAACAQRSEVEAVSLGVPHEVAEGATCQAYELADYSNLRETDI
Outline: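 Membranes from LM(tk−) cells transfected with cloned human α1A receptor, prepared in 50 mM Tris-HCl, 1 mM MgCl2, 0.1% ascorbic acid pH 7.5, were incubated with 0.5 nM [3H]prazosin at 37° C for 20 min. Nonspecific binding was defined with 10 μM phentolamine; bound ligand was separated by GF/B filtration.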

[2] = biological target: T2, α1B Human Adrenergic Receptor (Homo sapiens, UniProt P35368); experiment: Radioligand binding, [3H]prazosin, cloned human α1B adrenergic receptor; conditions: cloned human receptor in LM(tk-) cell membranes, SEM and n in lines below
T2 construct: The entire coding region of α1B (1563 bp); expressed in transfected cells
T2 sequence (P35368 1-520): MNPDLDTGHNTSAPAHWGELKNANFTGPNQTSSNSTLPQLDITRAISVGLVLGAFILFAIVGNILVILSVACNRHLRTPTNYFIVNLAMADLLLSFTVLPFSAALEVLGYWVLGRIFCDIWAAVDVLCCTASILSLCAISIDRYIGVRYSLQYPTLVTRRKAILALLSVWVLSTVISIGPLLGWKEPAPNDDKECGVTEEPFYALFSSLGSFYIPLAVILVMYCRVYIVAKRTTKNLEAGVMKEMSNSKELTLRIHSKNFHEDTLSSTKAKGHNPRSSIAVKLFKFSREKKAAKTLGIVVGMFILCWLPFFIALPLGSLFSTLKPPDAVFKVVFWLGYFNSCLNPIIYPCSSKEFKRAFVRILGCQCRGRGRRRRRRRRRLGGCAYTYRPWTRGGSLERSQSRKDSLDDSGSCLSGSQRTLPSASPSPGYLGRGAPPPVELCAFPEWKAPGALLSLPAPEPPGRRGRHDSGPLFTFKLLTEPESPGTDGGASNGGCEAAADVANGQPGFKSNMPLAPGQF
Outline: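 Membranes from stably transfected LM(tk−) cells, resuspended in 50 mM Tris-HCl, 1 mM MgCl2, 0.1% ascorbic acid, pH 7.5, were incubated with 0.5 nM [3H]prazosin for 20 min at 37° C. Nonspecific binding defined with 10 μM phentolamine; bound ligand separated by GF/B filtration.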

[3] = biological target: T3, α1C Human Adrenergic Receptor (Homo sapiens, UniProt P35348); experiment: Radioligand binding, [3H]prazosin, cloned human α1C adrenergic receptor; conditions: cloned human receptor in LM(tk-) cell membranes, SEM and n in lines below
T3 construct: The entire coding region of α1C (1401 bp); expressed in transfected cells
T3 sequence (P35348 1-466): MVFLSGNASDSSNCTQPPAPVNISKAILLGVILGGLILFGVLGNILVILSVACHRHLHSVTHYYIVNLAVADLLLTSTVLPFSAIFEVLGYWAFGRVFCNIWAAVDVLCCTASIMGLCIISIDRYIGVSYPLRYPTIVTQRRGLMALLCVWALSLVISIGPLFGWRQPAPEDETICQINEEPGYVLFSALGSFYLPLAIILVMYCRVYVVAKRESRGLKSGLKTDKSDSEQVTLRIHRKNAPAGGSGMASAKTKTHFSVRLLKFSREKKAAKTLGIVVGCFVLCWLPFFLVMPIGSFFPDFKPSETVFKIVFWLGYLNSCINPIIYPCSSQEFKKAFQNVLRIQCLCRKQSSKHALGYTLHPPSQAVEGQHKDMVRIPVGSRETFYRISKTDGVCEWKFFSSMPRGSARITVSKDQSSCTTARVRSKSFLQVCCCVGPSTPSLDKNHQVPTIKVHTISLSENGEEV
Outline: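 Read-out is filter-retained [3H]prazosin (0.5 nM) bound to membranes of LM(tk−) cells stably carrying the human α1C receptor. Incubation ran 20 min at 37° C. at pH 7.5, with 10 μM phentolamine marking nonspecific binding.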

[4] = read-out: pKi alpha-1 1b (converted)
[5] = read-out: pKi alpha-1 1c (converted)
[6] = [3H]prazosin, cloned human receptor in LM(tk-) cell membranes, SEM and n in lines below

Row | Structure (SMILES) | Ki [1] [nM] | Ki [2, 4] [nM] | Ki [3, 5] [nM] | melting point [°C] | Ki [1, 6] [nM] | Ki ([2]; pKi alpha-1 1b) [nM] | Ki ([3]; pKi alpha-1 1c) [nM]
1 | COC(=O)C1=C(C)NC(C)=C(C(=O)NCCCN2CCC(c3ccccc3)(c3ccccc3)CC2)C1c1ccc(C)cc1 (stereo not shown) [Example 19, 1,4-Dihydro-3-methoxycarbonyl-1,6-dimethyl-4-(4-methylphenyl)-5-(N-(3-(4,4-diphenylpiperidin-1-yl)propyl)carboxamido)pyridine] | 316 | 269 | 1.35 | 234 to 235 | – | – | –
2 | COC(=O)C1=C(C)NC(C)=C(C(=O)NCCCN2CCC(c3ccccc3)(c3ccccc3)CC2)C1c1ccc(F)cc1 (stereo not shown) [Example 20, 4-(4-Fluorophenyl)-1,4-dihydro-3-methoxycarbonyl-2,6-dimethyl-5-(N-(3-(4,4-diphenylpiperidin-1-yl)propyl)carboxamido)pyridine] | 1350 | 120 | 3.8 | 251 to 251.5 | – | – | –
3 | COC(=O)C1=C(C)NC(C)=C(C(=O)NCCCN2CCC(c3ccccc3)(c3ccccc3)CC2)C1c1ccc(OC)cc1 (stereo not shown) [Example 21, 1,4-Dihydro-3-methoxycarbonyl-4-(4-Methoxyphenyl)-2,6-dimethyl-5-(N-(3-(4,4-diphenylpiperidin-1-yl)propyl)carboxamido)pyridine] | 490 | 204 | 7.08 | 212 to 213 | – | – | –
4 | COC(=O)C1=C(C)NC(C)=C(C(=O)NCCCN2CCC(c3ccccc3)(c3ccccc3)CC2)C1c1ccoc1 (stereo not shown) [Example 23, 4-(3-Furyl)-1,4-dihydro-3-methoxycarbonyl-2,6-dimethyl-5-(N-(3-(4,4-diphenylpiperidin-1-yl)propyl)carboxamide)pyridine] | – | – | – | 225 to 226 | 646 | 214 | 14.5
5 | COC(=O)C1=C(C)NC(C)=C(C(=O)NCCCN2CCC(c3ccccc3)(c3ccccc3)CC2)C1c1ccc(Cl)c(Cl)c1 (stereo not shown) [Example 24, 4-(3,4-Dichlorophenyl)-1,4-dihydro-3-methoxycarbonyl-2,6-dimethyl-5-(3-(D 44-diphenylpiperidin-1-yl)propylcarboxamido)pyridine] | 324 | 115 | 1.86 | 177 to 178 | – | – | –
6 | COC(=O)C1=C(C)NC(C)=C(C(=O)NCCCN2CCC(c3ccccc3)(c3ccccc3)CC2)C1c1ccc(C(=O)OC)cc1 (stereo not shown) [Example 25, 1,4-Dihydro-3-methoxycarbonyl-4-(4-methoxycarbonylphenyl)-2,6-dimethyl-5-(N-(3-(4,4-diphenylpiperidin-1-yl)propyl)carboxamide)pyridine] | 646 | 331 | 33.9 | 175.5 to 176 | – | – | –
7 | COC(=O)C1=C(C)NC(C)=C(C(=O)NCCCN2CCC(c3ccccc3)(c3ccccc3)CC2)C1c1ccc(OC)c(OC)c1 (stereo not shown) [Example 26] | 525 | 437 | 7.08 | 180 to 181 | – | – | –
8 | COC(=O)C1=C(C)NC(C)=C(C(=O)NCCCN2CCC(c3ccccc3)(c3ccccc3)CC2)C1c1cc(OC)c(OC)c(OC)c1 (stereo not shown) [Example 27] | 380 | 324 | 3.63 | 187 to 188 | – | – | –
9 | COC(=O)C1=C(C)NC(C)=C(C(=O)NCCCN2CCC(c3ccccc3)(c3ccccc3)CC2)C1c1ccc([N+](=O)[O-])c(OC)c1 (stereo not shown) [Example 29, 1,4-Dihydro-3-methoxycarbonyl-4-(3-methoxy-4-nitrophenyl)-2,6-dimethyl-5-(N-(3-(4,4-diphenylpiperidin-1-yl)propyl)carboxamido)pyridine] | – | – | 1.48 | 211 to 213 | 263 | 141 | –
10 | CC1=C(C(=O)NCCCN2CCC(c3ccccc3)(c3ccccc3)CC2)C(c2ccc([N+](=O)[O-])cc2)C2=C(CCCC2=O)N1 (stereo not shown) [Example 40, 1,4,5,6,7,8-Hexahydro-2-methyl-4-(4-nitrophenyl)-5-oxo-3-{N-[3-(4,4-diphenylpiperidin-1-yl)propyl]}carboxamidoquinoline] | – | – | – | 143 to 146 | 550 | 275 | 13.8
